Test: xn = mol fraction of the nth substance listed
Details: 101 kPa, Liquid, Vibrating tube method

OCCNCCO [diethanolamine] + C[S+](C)[O-]
Details | mass density [kg/m3]
293.14 K, x1 = 0.9002 | 1097.48
293.15 K, x1 = 0.1002 | 1098.86
293.15 K, x1 = 0.1999 | 1097.33
293.15 K, x1 = 0.2998 | 1096.58
293.15 K, x1 = 0.4001 | 1096.23
293.15 K, x1 = 0.5001 | 1096.24
293.15 K, x1 = 0.6 | 1096.29
293.15 K, x1 = 0.7002 | 1096.88
293.15 K, x1 = 0.8001 | 1097.24
293.15 K, x1 = 1 | 1097.61
303.14 K, x1 = 0.4001 | 1087.87
303.14 K, x1 = 0.9002 | 1090.69
303.15 K, x1 = 0.1002 | 1089.38
303.15 K, x1 = 0.1999 | 1088.26
303.15 K, x1 = 0.2998 | 1087.88
303.15 K, x1 = 0.5001 | 1088.23
303.15 K, x1 = 0.6 | 1088.59
303.15 K, x1 = 0.7002 | 1089.43
303.15 K, x1 = 0.8001 | 1090.11
303.15 K, x1 = 1 | 1091.17
313.14 K, x1 = 0.4001 | 1079.49
313.15 K, x1 = 0.1002 | 1079.89
313.15 K, x1 = 0.1999 | 1079.19
313.15 K, x1 = 0.2998 | 1079.18
313.15 K, x1 = 0.5001 | 1080.19
313.15 K, x1 = 0.6 | 1080.87
313.15 K, x1 = 0.7002 | 1081.97
313.15 K, x1 = 0.8001 | 1082.9
313.15 K, x1 = 0.9002 | 1083.77
313.15 K, x1 = 1 | 1084.6
323.14 K, x1 = 0.4001 | 1071.1
323.15 K, x1 = 0.1002 | 1070.39
323.15 K, x1 = 0.1999 | 1070.11
323.15 K, x1 = 0.2998 | 1070.46
323.15 K, x1 = 0.5001 | 1072.12
323.15 K, x1 = 0.6 | 1073.1
323.15 K, x1 = 0.7002 | 1074.48
323.15 K, x1 = 0.9002 | 1076.8
323.15 K, x1 = 1 | 1077.88
323.16 K, x1 = 0.8001 | 1075.68
333.14 K, x1 = 1 | 1071.11
333.15 K, x1 = 0.1002 | 1060.89
333.15 K, x1 = 0.1999 | 1061.01
333.15 K, x1 = 0.2998 | 1061.72
333.15 K, x1 = 0.4001 | 1062.67
333.15 K, x1 = 0.5001 | 1064.01
333.15 K, x1 = 0.6 | 1065.3
333.15 K, x1 = 0.7002 | 1066.94
333.15 K, x1 = 0.8001 | 1068.41
333.15 K, x1 = 0.9002 | 1069.78
343.14 K, x1 = 0.4001 | 1054.22
343.14 K, x1 = 0.9002 | 1062.69
343.14 K, x1 = 1 | 1064.25
343.15 K, x1 = 0.1002 | 1051.36
343.15 K, x1 = 0.1999 | 1051.9
343.15 K, x1 = 0.2998 | 1052.96
343.15 K, x1 = 0.5001 | 1055.86
343.15 K, x1 = 0.6 | 1057.43
343.15 K, x1 = 0.7002 | 1059.34
343.15 K, x1 = 0.8001 | 1061.08
353.14 K, x1 = 0.1999 | 1042.77
353.14 K, x1 = 0.5001 | 1047.65
353.14 K, x1 = 0.7002 | 1051.66
353.14 K, x1 = 0.9002 | 1055.5
353.14 K, x1 = 1 | 1057.31
353.15 K, x1 = 0.1002 | 1041.8
353.15 K, x1 = 0.2998 | 1044.16
353.15 K, x1 = 0.4001 | 1045.72
353.15 K, x1 = 0.6 | 1049.5
353.15 K, x1 = 0.8001 | 1053.64
363.14 K, x1 = 0.1002 | 1032.21
363.14 K, x1 = 0.1999 | 1033.59
363.14 K, x1 = 0.2998 | 1035.35
363.14 K, x1 = 0.6 | 1041.5
363.14 K, x1 = 0.7002 | 1043.89
363.14 K, x1 = 0.8001 | 1046.12
363.14 K, x1 = 0.9002 | 1048.21
363.15 K, x1 = 0.4001 | 1037.18
363.15 K, x1 = 0.5001 | 1039.38
363.15 K, x1 = 1 | 1050.24

Source: the NIST ThermoML archive (doi:10.1016/j.jct.2012.08.021)
